In patent publication US20230045421A1 (priority 2018, published 2023):
Read-outs that look alike come from different tables or passages of the source.

System: HBV rcDNA
Experiment: HepDE19 assay with bDNA quantitation of HBV rcDNA
Type: cell-based, hepatitis B virus
Method in brief: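 HepDE19 cells (HepG2-derived, Tet-regulated HBV replication) were deprived of tetracycline and then exposed to compounds for 7 days at 37 °C in 0.5% DMSO, 8-point titration from 25 μM. rcDNA was quantified by bDNA and EC50/EC90 came from 4-parameter fits. CC50 was measured by CellTiter-Glo ATP content on replicate plates after 4 days.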

[1] = HepDE19 assay, inhibition of formation of rcDNA, read-out: DE-19bDNA EC50
[2] = Hepatitis B virus, HepDE19, HepDE19 assay, inhibition of formation of rcDNA, read-out: DE-19bDNA EC50
[3] = HepDE19 assay, inhibition of formation of relaxed circular DNA (rcDNA), bDNA quantitation, read-out: DE-19bDNA EC50
[4] = read-out: DE-19bDNA EC50, HepDE19 assay, inhibition of formation of rcDNA

| Structure (SMILES) | EC50 [1] | EC50 [3] | other results |
| --- | --- | --- | --- |
| CC(c1cnc(NCc2cn[nH]n2)c2ccccc12)N(C)C(=O)Nc1ccc(F)c(Cl)c1 (single isomer, unassigned) [Compound 262, 1-(1-(1-(((2H-1,2,3-Triazol-4-yl)methyl)amino)isoquinolin-4-yl)ethyl)-3-(3-chloro-4-fluorophenyl)-1-methylurea] | 0.15 µM |  |  |
| Cc1cc(NC(=O)NCc2c[nH]c(=O)c3ccccc23)ccc1F [Compound 4, 1-(4-Fluoro-3-methylphenyl)-3-((1-oxo-1,2-dihydroisoquinolin-4-yl)methyl)urea] |  |  | EC50 [2]: 4.8 µM |
| CC(c1cnc(NCc2ncn(C)n2)c2ccccc12)N(C)C(=O)Nc1ccc(F)c(Cl)c1 (single isomer, unassigned) [Compound 246, 3-(3-Chloro-4-fluorophenyl)-1-methyl-1-(1-(1-(((1-methyl-1H-1,2,4-triazol-3-yl)methyl)amino)isoquinolin-4-yl)ethyl)urea] | 0.14 µM |  |  |
| CC(c1c[nH]c(=O)c2ccc(Cl)cc12)N(C)C(=O)Nc1ccc(F)c(Cl)c1 (single isomer, unassigned) [Compound 172, 1-(1-(6-Chloro-1-oxo-1,2-dihydroisoquinolin-4-yl)ethyl)-3-(3-chloro-4-fluorophenyl)-1-methylurea] | 0.12 µM |  |  |
| CC(c1cnc(OCc2nc[nH]n2)c2ccccc12)N(C)C(=O)Nc1ccc(F)c(Cl)c1 (single isomer, unassigned) [Compound 146, 1-(1-(1-((1H-1,2,4-Triazol-3-yl)methoxy)isoquinolin-4-yl)ethyl)-3-(3-chloro-4-fluorophenyl)-1-methylurea] | 0.05 µM |  |  |
| CC(c1cnc(OCc2nc[nH]n2)c2cc(F)c(F)cc12)N(CCCO)C(=O)Nc1ccc(F)c(Cl)c1 (single isomer, unassigned) [Compound 365, 1-(1-(1-((1H-1,2,4-Triazol-3-yl)methoxy)-6,7-difluoroisoquinolin-4-yl)ethyl)-3-(3-chloro-4-fluorophenyl)-1-(3-hydroxypropyl)urea] |  | 0.009 µM |  |
| CC(c1cnc(CO)c2ccccc12)N(C)C(=O)Nc1ccc(F)c(Cl)c1 (single isomer, unassigned) [Compound 327, 3-(3-Chloro-4-fluorophenyl)-1-(1-(1-(hydroxymethyl)isoquinolin-4-yl)ethyl)-1-methylurea] |  | 0.71 µM |  |
| C[C@H](c1c[nH]c(=O)c2ccccc12)N(CC(F)F)C(=O)Nc1ccc(F)c(Cl)c1 [Compound 96, (R)-3-(3-Chloro-4-fluorophenyl)-1-(2,2-difluoroethyl)-1-(1-(1-oxo-1,2-dihydroisoquinolin-4-yl)ethyl)urea] |  |  | EC50 [2]: 0.22 µM |
| CC(c1cn(Cc2nc[nH]n2)c(=O)c2ccccc12)N(C)C(=O)Nc1ccc(F)c(Cl)c1 (single isomer, unassigned) [Compound 269, 1-(1-(2-((1H-1,2,4-Triazol-3-yl)methyl)-1-oxo-1,2-dihydroisoquinolin-4-yl)ethyl)-3-(3-chloro-4-fluorophenyl)-1-methylurea] | 0.56 µM |  |  |
| CC(c1c[nH]c(=O)c2cc(F)c(F)cc12)N(C)C(=O)Nc1ccc(F)c(C#N)c1 (single isomer, unassigned) [Compound 428, 3-(3-Cyano-4-fluorophenyl)-1-(1-(6,7-difluoro-1-oxo-1,2-dihydroisoquinolin-4-yl)ethyl)-1-methylurea] |  | 1.6 µM |  |
| CC(c1cnc(OCc2nc[nH]n2)c2ccccc12)N(CCCO)C(=O)Nc1ccc(F)c(Cl)c1 (single isomer, unassigned) [Compound 260, 1-(1-(1-((1H-1,2,4-Triazol-3-yl)methoxy)isoquinolin-4-yl)ethyl)-3-(3-chloro-4-fluorophenyl)-1-(3-hydroxypropyl)urea] | 0.019 µM |  |  |
| CC(c1c[nH]c(=O)c2cc(F)ccc12)N(C)C(=O)Nc1ccc(F)c(Cl)c1 (racemic) [Compound 257, 3-(3-Chloro-4-fluorophenyl)-1-(1-(7-fluoro-1-oxo-1,2-dihydroisoquinolin-4-yl)ethyl)-1-methylurea] |  |  | EC50 [2]: 0.033 µM |
| CC(C)CN(C(=O)Nc1ccc(F)c(Cl)c1)C(C)c1cn(C)c(=O)c2cc(F)c(F)cc12 (single isomer, unassigned) [Compound 343, 3-(3-Chloro-4-fluorophenyl)-1-(1-(6,7-difluoro-2-methyl-1-oxo-1,2-dihydroisoquinolin-4-yl)ethyl)-1-isobutylurea] |  | 0.006 µM |  |
| COc1ccc2c(C(C)N(C)C(=O)Nc3ccc(F)c(Cl)c3)c[nH]c(=O)c2c1 (racemic) [Compound 173, 3-(3-Chloro-4-fluorophenyl)-1-(1-(7-methoxy-1-oxo-1,2-dihydroisoquinolin-4-yl)ethyl)-1-methylurea] |  |  | EC50 [2]: 0.38 µM |
| CCN(C(=O)Nc1ccc(F)c(Cl)c1)C(c1ccccc1)c1c[nH]c(=O)c2ccccc12 (single isomer, unassigned) [Compound 70, 3-(3-Chloro-4-fluorophenyl)-1-ethyl-1-((1-oxo-1,2-dihydroisoquinolin-4-yl)(phenyl)methyl)urea] |  |  | EC50 [4]: 16 µM |
| CC(c1c[nH]c(=O)c2cc(F)c(F)cc12)N(C)C(=O)NCc1ccc(F)c(Cl)c1 (single isomer, unassigned) [Compound 484, 3-(3-Chloro-4-fluorobenzyl)-1-(1-(6,7-difluoro-1-oxo-1,2-dihydroisoquinolin-4-yl)ethyl)-1-methylurea] |  | 14 µM |  |
| CC(c1c[nH]c(=O)c2cc(F)c(F)cc12)N(CCCO)C(=O)Nc1ccc(F)c(Cl)c1 (single isomer, unassigned) [Compound 290, 3-(3-Chloro-4-fluorophenyl)-1-(1-(6,7-difluoro-1-oxo-1,2-dihydroisoquinolin-4-yl)ethyl)-1-(3-hydroxypropyl)urea] |  | 0.002 µM |  |
| CC(c1c[nH]c(=O)c2ccccc12)N(CC1CCCC1)C(=O)Nc1ccc(F)c(Cl)c1 (single isomer, unassigned) [Compound 192, 3-(3-Chloro-4-fluorophenyl)-1-(cyclopentylmethyl)-1-(1-(1-oxo-1,2-dihydroisoquinolin-4-yl)ethyl)urea] | 0.42 µM |  |  |
| CCN(Cc1cnc(OCCO)c2ccccc12)C(=O)Nc1ccc(F)c(Cl)c1 [Compound 29, 3-(3-Chloro-4-fluorophenyl)-1-ethyl-1-((1-(2-hydroxyethoxy)isoquinolin-4-yl)methyl)urea] |  |  | EC50 [2]: 4.2 µM |
| CC(c1c[nH]c(=O)c2c(F)c(F)ccc12)N(C)C(=O)Nc1ccc(F)cc1 (single isomer, unassigned) [Compound 433, 1-(1-(7,8-Difluoro-1-oxo-1,2-dihydroisoquinolin-4-yl)ethyl)-3-(4-fluorophenyl)-1-methylurea] |  | 0.07 µM |  |
| CC(c1c[nH]c(=O)c2ccccc12)N(CC[C@H](C)O)C(=O)Nc1ccc(F)c(Cl)c1 (single isomer, unassigned) [Compound 214] |  |  | EC50 [4]: 0.047 µM |
| CC(C)N(Cc1c[nH]c(=O)c2ccccc12)C(=O)Nc1ccc(F)c(Cl)c1 [Compound 26, 3-(3-Chloro-4-fluorophenyl)-1-isopropyl-1-((1-oxo-1,2-dihydroisoquinolin-4-yl)methyl)urea] |  |  | EC50 [2]: 0.43 µM |
| CC(c1c[nH]c(=O)c2cc(F)c(F)cc12)N(C)C(=O)Nc1cccc(Cl)c1 (single isomer, unassigned) [Compound 412, 1-(1-(6,7-Difluoro-1-oxo-1,2-dihydroisoquinolin-4-yl)ethyl)-3-(3-chlorophenyl)-1-methylurea] |  |  | EC50 (read-out: DE-19bDNA EC50, HepDE19 assay, inhibition of formation of relaxed circular DNA (rcDNA), bDNA quantitation): 1.9 µM |
| CC(c1c[nH]c(=O)c2cc(F)c(F)cc12)N(C)C(=O)Nc1cccc(F)c1F (single isomer, unassigned) [Compound 430, 1-(1-(6,7-Difluoro-1-oxo-1,2-dihydroisoquinolin-4-yl)ethyl)-3-(2,3-difluorophenyl)-1-methylurea] |  | 12 µM |  |
| CCN(C(=O)Nc1ccc(F)c(Cl)c1)C(C)c1c[nH]c(=O)c2cnccc12 (single isomer, unassigned) [Compound 152, 3-(3-Chloro-4-fluorophenyl)-1-ethyl-1-(1-(1-oxo-1,2-dihydro-2,7-naphthyridin-4-yl)ethyl)urea] | 0.15 µM |  |  |
| CC(c1c[nH]c(=O)c2c(F)cc(F)cc12)N(CCCO)C(=O)Nc1ccc(F)cc1 (single isomer, unassigned) [Compound 377, 1-(1-(6,8-Difluoro-1-oxo-1,2-dihydroisoquinolin-4-yl)ethyl)-3-(4-fluorophenyl)-1-(3-hydroxypropyl) urea] |  | 11 µM |  |
| CC(c1cn(C)c(=O)c2c(F)cccc12)N(C)C(=O)Nc1ccc(F)c(Cl)c1 (single isomer, unassigned) [Compound 359, 3-(3-Chloro-4-fluorophenyl)-1-(1-(8-fluoro-2-methyl-1-oxo-1,2-dihydroisoquinolin-4-yl)ethyl)-1-methylurea] |  | 0.023 µM |  |
| CC(c1c[nH]c(=O)c2c(F)c(F)ccc12)N(C)C(=O)Nc1cccnc1 (single isomer, unassigned) [Compound 450, 1-(1-(7,8-Difluoro-1-oxo-1,2-dihydroisoquinolin-4-yl)ethyl)-1-methyl-3-(pyridin-3-yl)urea] |  |  | EC50 (Hepatitis B virus, HepDE19, read-out: DE-19bDNA EC50 (μM), HepDE19 assay, inhibition of formation of relaxed circular DNA (rcDNA), bDNA quantitation): 5.4 µM |
| CCN(C(=O)Nc1ccc(F)c(Cl)c1)C(C)c1cnc(OC)c2ccccc12 (single isomer, unassigned) [Compound 23, 3-(3-Chloro-4-fluorophenyl)-1-ethyl-1-(1-(1-methoxyisoquinolin-4-yl)ethyl)urea] | 0.27 µM |  |  |
| COc1ncc(C(C)N(C)C(=O)Nc2ccc(F)c(Cl)c2)c2nccnc12 (racemic) [Compound 137, 3-(3-chloro-4-fluorophenyl)-1-(1-(5-methoxypyrido[3,4-b]pyrazin-8-yl)ethyl)-1-methylurea] |  |  | EC50 [2]: 6.1 µM |
